Experimental data published in US11912670B1, “Ethyl 4-(5-(3-fluorophenyl)-4-phenyl-4H-1,2,4-triazol-3-ylthio)butanoate as an antimicrobial compound” (KING FAISAL UNIVERSITY, priority 2023, dated 2024).

Tests used:
Assay type in all cases: cell-based
Bacillus cereus = assay: Agar plate disc-diffusion, antibacterial (gram positive); details: nutrient agar, 37° C., 48 hours, DMSO control zone subtracted
Procedure: (§1) The agar plate disc-diffusion method was applied. […] The discs were then placed onto the surface of agar plates (nutrient agar for bacteria and Sabouraud's dextrose agar for fungi) seeded with the test organism. Each plate contained 15 mL of the agar medium, previously seeded with 0.2 mL of the broth culture of each organism pregrown for 18 hours. The plates were incubated at 37° C. for 48 hours, and 72 hours for fungi. The inhibition zones were measured in mm. Discs impregnated with DMSO were used as a control, and its inhibition zone was subtracted from the tested compound actual inhibition zone.

Staphylococcus aureus = assay: as above; details: nutrient agar, 37° C., 48 hours, DMSO control zone subtracted
Procedure: as §1

Escherichia coli = assay: Agar plate disc-diffusion, antibacterial (gram negative); details: nutrient agar, 37° C., 48 hours, DMSO control zone subtracted
Procedure: as §1

Pseudomonas aeruginosa = assay: as above; details: nutrient agar, 37° C., 48 hours, DMSO control zone subtracted
Procedure: as §1

Aspergillus flavus = assay: Agar plate disc-diffusion, antifungal; details: Sabouraud's dextrose agar, 72 hours, DMSO control zone subtracted
Procedure: as §1

[1] = tested on: Chrysosporium keratinophilum; assay: Agar plate disc-diffusion, antifungal; details: Sabouraud's dextrose agar, 72 hours, DMSO control zone subtracted
Procedure: as §1

[2] = A = concentration of comp. = 10,000 μL
[3] = B = concentration of comp. = 30,000 μL
[4] = C = concentration of comp. = 50,000 μL

**Q.** Which results are given for `CCOC(=O)CCCSc1nnc(-c2cccc(F)c2)n1-c1ccccc1` [III, ethyl 4-(5-(3-fluorophenyl)-4-phenyl-4H-1,2,4-triazol-3-ylthio)butanoate]?
**A.** inhibition zone, Bacillus Cereus, A (Bacillus cereus; [2]): 27 mm; inhibition zone, Bacillus Cereus, B (Bacillus cereus; [3]): 29 mm; inhibition zone, Bacillus Cereus, C (Bacillus cereus; [4]): 40 mm; inhibition zone, Staphylococcus aureus, A (Staphylococcus aureus; [2]): 18 mm; inhibition zone, Staphylococcus aureus, B (Staphylococcus aureus; [3]): 25 mm; inhibition zone, Staphylococcus aureus, C (Staphylococcus aureus; [4]): 30 mm; inhibition zone, Escherichia coli, A (Escherichia coli; [2]): 22 mm; inhibition zone, Escherichia coli, B (Escherichia coli; [3]): 29 mm; inhibition zone, Escherichia coli, C (Escherichia coli; [4]): 42 mm; inhibition zone, Pseudomonas aeruginosa, A (Pseudomonas aeruginosa; [2]): 25 mm; inhibition zone, Pseudomonas aeruginosa, B (Pseudomonas aeruginosa; [3]): 29 mm; inhibition zone, Pseudomonas aeruginosa, C (Pseudomonas aeruginosa; [4]): 46 mm; inhibition zone, Aspergillus flavus, A (Aspergillus flavus; [2]): 26 mm; inhibition zone, Aspergillus flavus, B (Aspergillus flavus; [3]): 28 mm; inhibition zone, Aspergillus flavus, C (Aspergillus flavus; [4]): 40 mm; inhibition zone, Chrysosporium keratinophilum, A ([1]; A = concentration of comp. = 10,000 μg/mL): 25 mm; inhibition zone, Chrysosporium keratinophilum, B [1, 3]: 28 mm; inhibition zone, Chrysosporium keratinophilum, C [1, 4]: 48 mm
